Measurements from paper PMC3338619, “Ligand Binding Study of Human PEBP1/RKIP: Interaction with Nucleotides and Raf-1 Peptides Evidenced by NMR and Mass Spectrometry” (PLoS ONE, 2012).

Assays:
hPEBP1 [1] = target: T1, hPEBP1 (Homo sapiens, UniProt P30086); experiment: Native mass spectrometry KD determination (bound protein fraction); format: binding; conditions: ammonium bicarbonate 20 mM pH 7.4/37°C, no NaCl; read-out: MS KD
T1 construct: all residues except Met1, Val3, Asp35, Gln45, Lys47 and Lys187 (total residues: 187;); made in house; host or cells: E. coli BL21 (DE3), pET31b
Method: Non-labeled recombinant hPEBP1 purified as previously described was used for mass spectrometry analysis. To prevent Na^+ adduct formation, the commercial GTP and FMN nucleotides used in native MS were desalted. For this purpose, a protocol derived from the RNA-desalting procedure of Limbach et al. (1995) was set up.
All MS measurements were performed in an ESI-ion trap model Esquire HCT or Ultra HCT PTM Discovery (Bruker, Bremen, Germany), or in a maXis ESI-UHR-Qq-TOF (Bruker). Complexes were formed by incubating hPEBP1 with a range of ligand concentrations in ammonium bicarbonate 20 mM/formic acid buffer, pH 7.4 at 37°C or in ammonium acetate 20 mM, pH 6.6 at 20°C. After incubation, samples were treated with a Zeba micro gel filtration device with a 7 kDa cut-off (Thermo Scientific, Waltham, MA) prior to MS measurement, or analyzed directly in MS. The KD was determined by measuring the bound protein fraction by native MS. Details of the development of the native MS method for KD determination are described in the work of Jaquillard et al. (in press).

hPEBP1 [2] = target: T1, hPEBP1; experiment: 15N-1H HSQC NMR titration of ligands with hPEBP1 (KD from CSP fitting); format: binding
Method: The interactions between hPEBP1 100–270 µM and the four selected ligands were investigated by ^15N-^1H heteronuclear single quantum coherence (HSQC) NMR experiments with a sensitivity enhancement and gradient selected coherence. ^1H, ^15N HSQC spectra were recorded at 20 or 30°C on a Bruker 500 MHz or a Varian Inova 600 MHz spectrometer. Two experimental sets of conditions were tested: MES 10 mM pH 6.5 at 20°C, and HEPES 10 mM, NaCl 100 mM pH 7.5 at 30°C.
In the simple case of protein-ligand interactions, the free and the bound states are observed during the titration. The interpretation of an NMR spectrum, such as an HSQC, depends on the rate of exchange between the bound and the free forms. Three different cases can be observed. If the complex rate of dissociation is very slow, two separate resonances are observed at the positions corresponding to the chemical shifts characteristic of the two states (free and bound). During the titration, the intensity of the free resonance decreases while the bound resonance one appears and goes up. This regime corresponds to slow chemical exchange on the NMR time scale. If the complex rate of dissociation is very fast, only a single resonance is observed, whose position is the average of the chemical shifts of the two states, weighted by their relative populations. In this case, Chemical Shift Perturbations (CSP) are observed, i.e. the chemical shift evolves as the ligand concentration increases. This regime corresponds to fast exchange on the NMR time scale, and is typical for weaker affinity complexes. In the intermediate chemical exchange case, in addition to CSP, complex changes will affect the line shape that results in the observation of very broad signals with low intensity.
In the fast exchange regime, CSP can be measured from ^15N-HSQC spectra using the equation: [drawing 1] (1) with δ being the chemical shift in ppm.
A threshold value was estimated in order to determine significant CSP. In a first step, all the CSP are considered and the average (<CSP>) plus two times the standard deviation (σ) is calculated. Then, the highest CSP (CSP≥<CSP>+2σ) are removed from the data and new average and new standard deviation calculated. The operation is repeated until the convergence is reached.
Once the residues involved in the binding were selected, the experimental data were fitted with the quadratic equation 2 using SigmaPlot 9.0 in order to obtain the dissociation constant value (KD): [drawing 2] (2) where [P]0 and [L] are the total protein and ligand concentrations, respectively. A KD value was estimated for each residue involved in the binding, and then an average was calculated.

rPEBP1 = tested on: rPEBP1; design: method as in PMID 20463977; conditions: pH 7.4/NaCl 100 mM/30°C, 130 mM GTP for 75 µM rPEBP1; cited from earlier work
[3] = HEPES 10 mM pH 7.5/NaCl 100 mM/30°C (near physiological conditions)

T1 sequence (P30086 whole entry): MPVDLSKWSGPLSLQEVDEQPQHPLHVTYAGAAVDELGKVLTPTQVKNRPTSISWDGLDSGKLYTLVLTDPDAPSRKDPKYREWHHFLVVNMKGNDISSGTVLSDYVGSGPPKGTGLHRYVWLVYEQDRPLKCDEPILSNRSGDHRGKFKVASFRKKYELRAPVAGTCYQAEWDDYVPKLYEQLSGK

Kd (hPEBP1 [1]) | Kd (hPEBP1 [2]; HEPES 10 mM pH 7.5/20°C, from CSP data of 9 residues in fast exchange) | Kd (hPEBP1 [2]; [3]) | Kd (hPEBP1 [2]; MES 10 mM pH 6.5/20°C) | SMILES | chemical shift perturbations for rPEBP1 (rPEBP1)
5 ± 4 µM | 14 ± 11 µM | 252 ± 84 µM | 14 ± 9 µM | Cc1cc2nc3c(=O)[nH]c(=O)nc-3n(C[C@H](O)[C@H](O)[C@H](O)COP(=O)(O)O)c2cc1C [FMN, flavin mononucleotide] | –
89 ± 48 µM | – | 3420 ± 1970 µM | 669 ± 140 µM | Nc1nc2c(ncn2[C@@H]2O[C@H](COP(=O)(O)OP(=O)(O)OP(=O)(O)O)[C@@H](O)[C@H]2O)c(=O)[nH]1 [GTP, Guanosine triphosphate] | did not cause significant chemical shift perturbations
– | – | 173 ± 19 µM | – | O=C1N[C@@H](Cc2ccccc2)CO1 [locostatin precursor, (S)-4-benzyl-2-oxazolidinone] | –
